Reference: US11530216B2, “Deuterated colony stimulating factor-1 receptor (CSF-1R) inhibitors” (Genzyme Corporation, priority 2020, dated 2022)
Like-named read-outs stand apart in the source and are kept apart here.

Assays:
[1] = Human hepatocyte intrinsic clearance; type: in vitro ADME; conditions: for CLint scaled at 1 μM / hepatocyte CLint at 1 μM: human, hepatocytes
Protocol: (§1) Incubations were performed in 0.5 million hepatocytes cells/mL at 1 μM concentration of test compound in duplicate with rat, human, dog, monkey, or mouse hepatocytes, and the concentration-time course of test compound depletion was determined after withdrawing samples from the incubation at assay time points followed by liquid chromatography with tandem mass spectrometry analysis. An organic solvent was used to terminate incubations.
(§2) These available known AO substrates along with the test compounds were analyzed using three in vitro systems (pooled human liver cytosol, liver S-9 fractions and human hepatocytes isolated from livers perfused with HTK media). Scaled unbound intrinsic clearances were calculated for the test compounds/new chemical entities and were compared to the in vivo unbound intrinsic clearances of the known AO substrates.

[2] = Human liver cytosol intrinsic clearance; type: in vitro ADME; conditions: for CLint scaled at 1 μM / microsomal CLint at 1 μM: human, cytosol
Protocol: as §1, with “1 mg/mL human liver cytosol with high aldehyde oxidase (AO)/xanthine oxidase (XO) activity or 2.5 mg/mL human liver S-9 fraction with high AO/XO activity” for “0.5 million hepatocytes cells/mL”, “duplicate,” for “duplicate with rat, human, dog, monkey, or mouse hepatocytes,”
as §2

[3] = Human liver S-9 intrinsic clearance; type: in vitro ADME; conditions: for Human Liver S-9 Intrinsic Clearance _1 / Human Liver S-9 Intrinsic Clearance _2: 2.5 mg/mL S-9, 1 μM; for CLint scaled at 1 μM / microsomal CLint at 1 μM: human; for CLint scaled at 1 μM: s9
Protocol: as §1, with “1 mg/mL human liver cytosol with high aldehyde oxidase (AO)/xanthine oxidase (XO) activity or 2.5 mg/mL human liver S-9 fraction with high AO/XO activity” for “0.5 million hepatocytes cells/mL”, “duplicate,” for “duplicate with rat, human, dog, monkey, or mouse hepatocytes,”
as §2

[4] = known AO substrates, human, literature; cited from earlier work
[5] = tested on: MCP-1 production in primary murine microglial cells; assay: MCP-1 ELISA, primary mouse microglia after CSF-1 stimulation; type: cell-based; conditions: primary murine microglia, 100 ng/mL CSF-1 24 hours
Protocol: Primary mouse microglia were suspended at a concentration of 5×10^5 cells/mL and 100 μL of this cell suspension was added to the inner 60 wells of three 96-well plates. Microglia cells were allowed to rest overnight at 37° C., 5% CO2. […] Cells were then stimulated with 100 ng/mL recombinant mouse CSF-1 for 24 hours. After stimulation, the culture supernatant was removed from each well and aliquoted into two different 96-well plates for subsequent ELISA assays. Plates were fixed with 4% PFA for future immunocytochemistry analysis.

primary murine microglia = assay: Immunostaining of primary microglia (Iba1+ area, DAPI+ nuclei) after CSF-1 stimulation; type: cell-based, mouse; conditions: for IC50: primary murine microglia, CSF-1 stimulation
Protocol: Primary mouse microglia were suspended at a concentration of 5×10^5 cells/mL and 100 μL of this cell suspension was added to the inner 60 wells of three 96-well plates. Microglia cells were allowed to rest overnight at 37° C., 5% CO2. […] Cells were then stimulated with 100 ng/mL recombinant mouse CSF-1 for 24 hours. After stimulation, the culture supernatant was removed from each well and aliquoted into two different 96-well plates for subsequent ELISA assays. Plates were fixed with 4% PFA for future immunocytochemistry analysis. Following the stimulation, cells were fixed with 4% PFA for 20 minutes at room temperature. Cells were then rinsed in PBS, washed 3×5 minutes in 0.2% PBT (0.2% Triton X-100 in PBS) and blocked with 10% donkey serum/0.2% PBT for 1 hour at room temperature. […] After staining, plates were imaged on the IN Cell Analyzer 2200 with 9 fields of view acquired per well. […] A one-way ANOVA was used to determine the statistical significance of differences between samples. […] Following a microglial stimulation, immunocytochemistry was completed with Iba1, Ki67, and DAPI to determine microglial morphology, proliferative state, and number. InCell imaging microsope and analysis software was used to quantify Iba1^+ area, and the number of DAPI^+ nuclei within the cultures.

[6] = 1 mg/mL cytosol, 1 μM, replicate 1
[7] = 1 mg/mL cytosol, 1 μM, replicate 2
[8] = Human Liver Cytosol Intrinsic Clearance _1
[9] = Human Liver Cytosol Intrinsic Clearance _2
[10] = raw data, AO calibration set, read-out: Human Hepatocytes Intrinsic Clearance
[11] = scaled data, read-out: Human Hepatocytes in vitro scaled Intrinsic Clearance
[12] = 1 mg/mL cytosol, 1 μM, replicate 1, read-out: Human Liver Cytosol Intrinsic Clearance _1
[13] = 1 mg/mL cytosol, 1 μM, replicate 2, read-out: Human Liver Cytosol Intrinsic Clearance _2
[14] = scaled data, read-out: Human Liver Cytosol in vitro scaled Intrinsic Clearance
[15] = s9, 2.5 mg/mL S-9, 1 μM, replicate 1, read-out: Human Liver S-9 Intrinsic Clearance _1
[16] = s9, 2.5 mg/mL S-9, 1 μM, replicate 2, read-out: Human Liver S-9 Intrinsic Clearance _2
[17] = scaled data, read-out: Human Liver S-9 in vitro scaled Intrinsic Clearance

SMILES | Human Hepatocytes Intrinsic Clearance ([1]; raw data, AO calibration set) [μL/min/10^6 cells] | Human Hepatocytes in vitro scaled Intrinsic Clearance ([1]; scaled data) [mL/min/kg] | Human Liver Cytosol Intrinsic Clearance _1 [2, 6] [μL/min/mg protein] | Human Liver Cytosol Intrinsic Clearance _2 [2, 7] [μL/min/mg protein] | Human Liver Cytosol in vitro scaled Intrinsic Clearance ([2]; scaled data) [mL/min/kg] | Human Liver S-9 Intrinsic Clearance _1 ([3]; replicate 1) [μL/min/mg protein] | Human Liver S-9 Intrinsic Clearance _2 ([3]; replicate 2) [μL/min/mg protein] | Human Liver S-9 in vitro scaled Intrinsic Clearance ([3]; scaled data) [mL/min/kg] | Estimated Free in vivo Intrinsic Clearance (Ref) [4] | CLint scaled at 1 μM [1] [mL/min/kg] | hepatocyte CLint at 1 μM [1] [µL/min/1e6 cells] | CLint scaled at 1 μM [2] [mL/min/kg] | microsomal CLint at 1 μM [2, 8] [µL/min/mg] | microsomal CLint at 1 μM [2, 9] [µL/min/mg] | also measured
Nc1nc(OCc2ccccc2)c2nc[nH]c2n1 [O6-benzylguanine] | 13.6 | 34.6 | 5.6 | 4.9 | 10.7 | 6.66 | 5.97 | 19.5 | 360 |  |  |  |  |  | 
[2H]c1nc2cccnc2n1Cc1cc(OC)c2c(c1)O[C@H](C)[C@@H](c1ccc(OC)nc1)O2 [Compound 5, 3-(((2R,3R)-8-methoxy-2-(6-methoxypyridin-3-yl)-3-methyl-2,3-dihydrobenzo[b][1,4]dioxin-6-yl)methyl)-3H-imidazo[4,5-b]pyridine-2-d] |  |  |  |  |  |  |  |  |  | 19.7 | 7.74 | 2.2 | 0.7 | 1.4 | CLint scaled at 1 μM [3]: 3.6 mL/min/kg; microsomal CLint at 1 μM ([3]; s9, Human Liver S-9 Intrinsic Clearance _1): < 1.1 µL/min/mg; microsomal CLint at 1 μM ([3]; s9, Human Liver S-9 Intrinsic Clearance _2): < 1.1 µL/min/mg
OCCn1cc(-c2cnc3nnn(Cc4ccc5ncccc5c4)c3n2)cn1 [PF-4217903] |  |  |  |  |  |  |  |  | 46 |  |  |  |  |  | hepatocyte CLint at 1 μM [1, 10]: 4.08 µL/min/1e6 cells; CLint scaled at 1 μM [1, 11]: 10.4 mL/min/kg; microsomal CLint at 1 μM [2, 12]: < 0.7 µL/min/mg; microsomal CLint at 1 μM [2, 13]: < 0.7 µL/min/mg; CLint scaled at 1 μM [2, 14]: < 1.5 mL/min/kg; microsomal CLint at 1 μM [3, 15]: < 1.1 µL/min/mg; microsomal CLint at 1 μM [3, 16]: < 1.1 µL/min/mg; CLint scaled at 1 μM [3, 17]: < 3.4 mL/min/kg
N=C(N)NC(=O)c1cnn(-c2cccc3ncccc23)c1C1CC1 [zoniporide] |  |  |  |  |  |  |  |  | 180 | 33.8 | 13.3 | 12.4 |  |  | CLint scaled at 1 μM [3]: 18.6 mL/min/kg
CCNC(=O)OC1CCN(c2nncc3cc(OC)c(OC)cc23)CC1 [carbazeran] |  |  |  |  |  |  |  |  | 13000 |  |  |  |  |  | 
[2H]c1ccc2ncn(Cc3cc(OC)c4c(c3)O[C@@H](C)[C@H](c3ccc(OC)nc3)O4)c2n1 (racemic) [Compound 1, (+/−)-3-(((trans)-8-methoxy-2-(6-methoxypyridin-3-yl)-3-methyl-2,3-dihydrobenzo[b][1,4]dioxin-6-yl)methyl)-3H-imidazo[4,5-b]pyridine-5-d] |  |  |  |  |  |  |  |  |  | 26.2 | 10.3 | 6.9 | 3.4 | 3.3 | 
CN(Cc1cnc2nc(N)nc(N)c2n1)c1ccc(C(=O)N[C@@H](CCC(=O)O)C(=O)O)cc1 [methotrexate] | <2.7 | <6.9 | <0.7 | <0.7 | <1.5 | <1.1 | <1.1 | <3.4 | 0.44 |  |  |  |  |  | 
CC[C@H]1OC(=O)[C@H](C)C(=O)[C@H](C)[C@@H](O[C@@H]2O[C@H](C)C[C@H](N(C)C)[C@H]2O)[C@](C)(OC)C[C@@H](C)C(=O)[C@H](C)[C@H]2N(C3CN([C@H](C)c4ccnc5ncccc45)C3)C(=O)O[C@]12C [PF-945863] | 10.7 | 27.2 | 8.2 | 6.9 | 15.4 | 6.78 | 6.22 | 20.1 | 170 |  |  |  |  |  | 
CN(C)CCNC(=O)c1cccc2cc3ccccc3nc12 [DACA] | 49.1 | 125 | 46.2 | 46.8 | 96.5 | 19.0 | 17.7 | 56.5 | 3600 |  |  |  |  |  | 
CCN(C(C)=O)c1cccc(-c2ccnc3c(C#N)cnn23)c1 [zaleplon] |  |  |  |  |  |  |  |  | 65 |  |  |  |  |  | hepatocyte CLint at 1 μM [1, 10]: 7.53 µL/min/1e6 cells; CLint scaled at 1 μM [1, 11]: 19.2 mL/min/kg; microsomal CLint at 1 μM [2, 12]: 3.1 µL/min/mg; microsomal CLint at 1 μM [2, 13]: 3.4 µL/min/mg; CLint scaled at 1 μM [2, 14]: 6 mL/min/kg; microsomal CLint at 1 μM [3, 15]: 2.11 µL/min/mg; microsomal CLint at 1 μM [3, 16]: 3.32 µL/min/mg; CLint scaled at 1 μM [3, 17]: 7.1 mL/min/kg
[2H]c1nc2cccnc2n1C([2H])([2H])c1cc(OC)c2c(c1)O[C@@H](C)[C@H](c1ccc(OC)nc1)O2 (racemic) [Compound 4, (+/−)-3-(((trans)-8-methoxy-2-(6-methoxypyridin-3-yl)-3-methyl-2,3-dihydrobenzo[b][1,4]dioxin-6-yl)methyl-d2)-3H-imidazo[4,5-b]pyridine-2-d] |  |  |  |  |  |  |  |  |  | 19 | 7.45 | 3.4 | 1.2 | 2.1 | 
[2H]c1ccc2nc([2H])n(Cc3cc(OC)c4c(c3)O[C@@H](C)[C@H](c3ccc(OC)nc3)O4)c2n1 (racemic) [Compound 2, (+/−)-3-(((trans)-8-methoxy-2-(6-methoxypyridin-3-yl)-3-methyl-2,3-dihydrobenzo[b][1,4]dioxin-6-yl)methyl)-3H-imidazo[4,5-b]pyridine-2,5-d2] |  |  |  |  |  |  |  |  |  | 16.2 | 6.36 | 4.3 | 1.5 | 1.7 | 
FC(F)(F)c1ccc(CNc2ccc(Cc3c[nH]c4ncc(Cl)cc34)cn2)cn1 [PLX3397, pexidartinib] |  |  |  |  |  |  |  |  |  |  |  |  |  |  | IC50 ([5]; read-out: IC50, MCP-1 production): 0.0174 µM; MCP-1 production ([5]; 3.125-400 nM): significantly reduced MCP-1 production in a concentration dependent manner; Iba1+ area (primary murine microglia; CSF-1 stimulation increases Iba1+ area): significantly abrogated this effect in a concentration dependent manner; number of cells (DAPI+ cells) (primary murine microglia; CSF-1 stimulation increases cell number): reduce this number in a concentration dependent manner; IC50 (primary murine microglia; read-out: IC50 for DAPI (DAPI+ cell number)): 0.0682 µM; IC50 (primary murine microglia; read-out: IC50 for Iba1 (Iba1+ area)): 0.0504 µM
